Activity calls are given as the source filed them. No rule for the calls is given here.
System: CCRIS mutagenicity, Ames/micronucleus/aberration tests
Test: CCRIS mutagenicity studies

Measured: mutagenic call

CS(C)=O
inactive: Test System: AMES SALMONELLA TYPHIMURIUM, Strain/Indicator: TA1535, Metabolic Activation: RAT, LIVER, S-9, AROCLOR 1254 (10 OR 30%), Method: PREINCUBATION inactive; negative | Test System: AMES SALMONELLA TYPHIMURIUM, Strain/Indicator: TA1535, Metabolic Activation: RAT, LIVER, S-9, PHENOBARBITAL AND 5,6-BENZOFLAVONE, Method: PREINCUBATION (20 MIN) inactive; negative | Test System: AMES SALMONELLA TYPHIMURIUM, Strain/Indicator: TA1537, Metabolic Activation: HAMSTER, LIVER, S-9, AROCLOR 1254 (30%), Method: PREINCUBATION inactive; negative | Test System: AMES SALMONELLA TYPHIMURIUM, Strain/Indicator: TA1537, Metabolic Activation: NONE, Method: FLUCTUATION (MICROTITER) inactive; negative | Test System: AMES SALMONELLA TYPHIMURIUM, Strain/Indicator: TA1537, Metabolic Activation: NONE, Method: PREINCUBATION inactive; negative | Test System: AMES SALMONELLA TYPHIMURIUM, Strain/Indicator: TA1537, Metabolic Activation: NONE, Method: STANDARD PLATE inactive; negative | Test System: AMES SALMONELLA TYPHIMURIUM, Strain/Indicator: TA1537, Metabolic Activation: RAT LIVER S-9, AROCLOR 1254, Method: FLUCTUATION (MICROTITER) inactive; negative | Test System: AMES SALMONELLA TYPHIMURIUM, Strain/Indicator: TA1537, Metabolic Activation: RAT, LIVER, S-9, AROCLOR 1254 (30%), Method: PREINCUBATION inactive; negative | Test System: AMES SALMONELLA TYPHIMURIUM, Strain/Indicator: TA1538, Metabolic Activation: NONE, Method: PREINCUBATION (20 MIN) inactive; negative | Test System: AMES SALMONELLA TYPHIMURIUM, Strain/Indicator: TA1538, Metabolic Activation: RAT, LIVER, S-9, PHENOBARBITAL AND 5,6-BENZOFLAVONE, Method: PREINCUBATION (20 MIN) inactive; negative | Test System: AMES SALMONELLA TYPHIMURIUM, Strain/Indicator: TA7001, Metabolic Activation: NONE, Method: FLUCTUATION (MICROTITER) inactive; negative | Test System: AMES SALMONELLA TYPHIMURIUM, Strain/Indicator: TA7001, Metabolic Activation: RAT LIVER S-9, AROCLOR 1254, Method: FLUCTUATION (MICROTITER) inactive; negative | Test System: AMES SALMONELLA TYPHIMURIUM, Strain/Indicator: TA7002, Metabolic Activation: NONE, Method: FLUCTUATION (MICROTITER) inactive; negative | Test System: AMES SALMONELLA TYPHIMURIUM, Strain/Indicator: TA7002, Metabolic Activation: RAT LIVER S-9, AROCLOR 1254, Method: FLUCTUATION (MICROTITER) inactive; negative | Test System: AMES SALMONELLA TYPHIMURIUM, Strain/Indicator: TA7003, Metabolic Activation: NONE, Method: FLUCTUATION (MICROTITER) inactive; negative | Test System: AMES SALMONELLA TYPHIMURIUM, Strain/Indicator: TA7003, Metabolic Activation: RAT LIVER S-9, AROCLOR 1254, Method: FLUCTUATION (MICROTITER) inactive; negative | Test System: AMES SALMONELLA TYPHIMURIUM, Strain/Indicator: TA7004, Metabolic Activation: NONE, Method: FLUCTUATION (MICROTITER) inactive; negative | Test System: AMES SALMONELLA TYPHIMURIUM, Strain/Indicator: TA7004, Metabolic Activation: RAT LIVER S-9, AROCLOR 1254, Method: FLUCTUATION (MICROTITER) inactive; negative | Test System: AMES SALMONELLA TYPHIMURIUM, Strain/Indicator: TA7005, Metabolic Activation: NONE, Method: FLUCTUATION (MICROTITER) inactive; negative | Test System: AMES SALMONELLA TYPHIMURIUM, Strain/Indicator: TA7005, Metabolic Activation: RAT LIVER S-9, AROCLOR 1254, Method: FLUCTUATION (MICROTITER) inactive; negative | Test System: AMES SALMONELLA TYPHIMURIUM, Strain/Indicator: TA7006, Metabolic Activation: NONE, Method: FLUCTUATION (MICROTITER) inactive; negative | Test System: AMES SALMONELLA TYPHIMURIUM, Strain/Indicator: TA7006, Metabolic Activation: RAT LIVER S-9, AROCLOR 1254, Method: FLUCTUATION (MICROTITER) inactive; negative | Test System: E. COLI, Strain/Indicator: WP2, Metabolic Activation: NONE, Method: PREINCUBATION (20 OR 60 MIN) inactive; negative | Test System: E. COLI, Strain/Indicator: WP2, Metabolic Activation: NONE, Method: STANDARD PLATE inactive; negative | Test System: E. COLI, Strain/Indicator: WP2 UVRA, Metabolic Activation: NONE, Method: PREINCUBATION (60 MIN) inactive; negative
active: Test System: AMES SALMONELLA TYPHIMURIUM, Strain/Indicator: TA1537, Metabolic Activation: NONE, Method: PREINCUBATION (20 MIN) active; positive | Test System: AMES SALMONELLA TYPHIMURIUM, Strain/Indicator: TA1537, Metabolic Activation: NONE, Method: PREINCUBATION (20 OR 60 MIN) active; positive | Test System: AMES SALMONELLA TYPHIMURIUM, Strain/Indicator: TA1537, Metabolic Activation: RAT, LIVER, S-9, PHENOBARBITAL AND 5,6-BENZOFLAVONE, Method: PREINCUBATION (20 MIN) active; positive | Test System: AMES SALMONELLA TYPHIMURIUM, Strain/Indicator: TA2637, Metabolic Activation: NONE, Method: PREINCUBATION (20 MIN) active; positive | Test System: AMES SALMONELLA TYPHIMURIUM, Strain/Indicator: TA2637, Metabolic Activation: RAT, LIVER, S-9, PHENOBARBITAL AND 5,6-BENZOFLAVONE, Method: PREINCUBATION (20 MIN) active; positive | Test System: E. COLI, Strain/Indicator: WP2 UVRA, Metabolic Activation: NONE, Method: PREINCUBATION (20 MIN) active; positive | Test System: E. COLI, Strain/Indicator: WP2 UVRA, Metabolic Activation: NONE, Method: STANDARD PLATE active; positive | Test System: MOUSE LYMPHOMA, Strain/Indicator: L5178Y (TK+/TK-), Metabolic Activation: NONE, Method: SUSPENSION/PLATE active; positive

Reference: PubChem BioAssay AID1259407 (Chemical Carcinogenesis Research Information System (CCRIS), 2018)
